# Columns and labels:
# [1] = tested on: histamine-induced vascular permeability in guinea pig conjunctiva; assay: histamine-induced vascular permeability in guinea pig conjunctiva, topical ocular pretreatment; format: in vivo, guinea pig (Male Dunkin Hartley); details: for Wheal Area × Intensity: 1 min pretreatment
# Procedure: The topical ocular antihistaminic effect of emedastine difumarate was assessed in a model of histamine induced vascular permeability in guinea pig conjunctiva. The potency of emedastine difumarate in this model was then compared with those of reference antihistamines.
# Male Dunkin Hartley Viral Antibody Free outbred guinea pigs (Charles River Labs, Portage, Mich.), weighing approximately 250-350 grams (6/group) were injected intravenously (i.v.) via the marginal ear vein with 1.0 mL of Evans Blue dye (1.0 mg/mL). Forty-five (45) minutes post dye injection, 20 μL of test compound or saline vehicle was applied topically to one eye of each experimental animal. […] Responses were quantitated as described by Yanni et al. in Int. Arch. Allergy Immunol., 101:102-106 (1993). Response scores from the treated groups were then compared with scores obtained in the saline-treated group using Dunnett's t test (Dunnett C. W., "A multiple comparison procedure for comparing treatments with a control." J. Am. Stat. Assoc. 50:1096-1121(1955)). Regression analysis was used to determine relative potency (Bliss, C. and E. Gjorgy. In Vitamin Methods, Vol. 2, pp. 445-610, Academic Press, Inc., New York, 1951.).
# [2] = tested on: passive anaphylaxis in guinea pig conjunctiva; assay: passive conjunctival anaphylaxis, topical ocular antigen challenge, clinical scoring; format: in vivo
# Procedure: Emedastine difumarate was evaluated for its ability to inhibit a passive conjunctival immediate hypersensitivity response following topical ocular administration.
# Guinea pigs (5-8/group) were passively sensitized with anti-ovalbumin serum injected subconjunctivally in one eye. Twenty-four hours after passive sensitization, ovalbumin (OA) was administered either i.v. or topically to the eye.
# For assessment of the allergic response following topical ocular antigen challenge, 20 μL of ovalbumin (1.0 wt %) was administered to the sensitized eye 5 minutes after topical ocular application of emedastine difumarate or saline (20 μL). Thirty minutes later, the reaction was quantitated, using the following scoring scheme (maximum score per animal=10):
# Congestion (refers to palpebral and bulbar conjunctiva):
# 3--Dark red conjunctiva; petechiae present
# 1--Any swelling on lower lid only
# 2--Swelling upper and lower lid, lids partially closed
# 3--Lids everted, very swollen, lids at least half closed
# 4--Swelling of both lids and side of face
# 1--Glazed, glassy appearance
# 2--Moist lids and surrounding hair
# 3--Moist lids and surrounding hair, thicker mucous-like
# [3] = topically 1 minute before histamine challenge
# [4] = topical ocular antigen challenge, 5 min before challenge
smiles,measurement,setting,value
"CCOCCn1c(N2CCCN(C)CC2)nc2ccccc21 [Emedastine Difumarate, 1-(2-ethoxyethyl)-2-(4-methyl-1-homopiperazinyl)-benzimidazole]",Wheal Area × Intensity,"[1]; 0.0001 wt %, antazoline experiment (NaCl 285 ± 19)",159 ± 31
same,Wheal Area × Intensity,"[1]; 0.0001 wt %, ketotifen/pheniramine experiment (NaCl 276 ± 10)",159 ± 26
same,Wheal Area × Intensity,"[1]; 0.0001 wt %, pyrilamine experiment (NaCl 308 ± 20)",166 ± 14
same,Wheal Area × Intensity,"[1]; 0.001 wt %, antazoline experiment (NaCl 285 ± 19)",109 ± 14
same,Wheal Area × Intensity,"[1]; 0.001 wt %, ketotifen/pheniramine experiment (NaCl 276 ± 10)",141 ± 38
same,Wheal Area × Intensity,"[1]; 0.001 wt %, pyrilamine experiment (NaCl 308 ± 20)",104 ± 20
same,Wheal Area × Intensity,"[1]; 0.01 wt %, antazoline experiment (NaCl 285 ± 19)",55 ± 12
same,Wheal Area × Intensity,"[1]; 0.01 wt %, ketotifen/pheniramine experiment (NaCl 276 ± 10)",45 ± 18
same,Wheal Area × Intensity,"[1]; 0.01 wt %, levocabastine experiment (NaCl 336 ± 78)",26 ± 27
same,Wheal Area × Intensity,"[1]; 0.01 wt %, pyrilamine experiment (NaCl 308 ± 20)",57 ± 16
same,ED50 (text),[1]; 1 minute prior to histamine challenge,0.0002%
same,inhibition of the vascular permeability response,"[1]; 1 minute, 30 minutes, 2, 4 or 8 hours prior to challenge",inhibited in concentration-dependent fashion
same,Wheal Area × Intensity (X ± S.D.),"[1]; 30 min pretreatment, 0.000001 wt %, clemastine experiment (NaCl 350 ± 31)",265 ± 35
same,Wheal Area × Intensity (X ± S.D.),"[1]; 30 min pretreatment, 0.000006 wt %, ketotifen experiment (NaCl 214 ± 41)",154 ± 62
same,Wheal Area × Intensity (X ± S.D.),"[1]; 30 min pretreatment, 0.000006 wt %, pyrilamine experiment (NaCl 194 ± 41)",136 ± 42
same,Wheal Area × Intensity (X ± S.D.),"[1]; 30 min pretreatment, 0.00001 wt %, antazoline experiment (NaCl 287 ± 20)",197 ± 57
same,Wheal Area × Intensity (X ± S.D.),"[1]; 30 min pretreatment, 0.00001 wt %, brompheniramine experiment (NaCl 219 ± 20)",191 ± 48
same,Wheal Area × Intensity (X ± S.D.),"[1]; 30 min pretreatment, 0.00001 wt %, chlorpheniramine experiment (NaCl 217 ± 35)",161 ± 68
same,Wheal Area × Intensity (X ± S.D.),"[1]; 30 min pretreatment, 0.00001 wt %, clemastine experiment (NaCl 350 ± 31)",165 ± 30
same,Wheal Area × Intensity (X ± S.D.),"[1]; 30 min pretreatment, 0.00001 wt %, diphenhydramine experiment (NaCl 214 ± 34)",163 ± 32
same,Wheal Area × Intensity (X ± S.D.),"[1]; 30 min pretreatment, 0.00001 wt %, levocabastine/pheniramine experiment (NaCl 252 ± 30)",191 ± 27
same,Wheal Area × Intensity (X ± S.D.),"[1]; 30 min pretreatment, 0.00006 wt %, ketotifen experiment (NaCl 214 ± 41)",91 ± 26
same,Wheal Area × Intensity (X ± S.D.),"[1]; 30 min pretreatment, 0.00006 wt %, pyrilamine experiment (NaCl 194 ± 41)",75 ± 22
same,Wheal Area × Intensity (X ± S.D.),"[1]; 30 min pretreatment, 0.0001 wt %, antazoline experiment (NaCl 287 ± 20)",65 ± 32
same,Wheal Area × Intensity (X ± S.D.),"[1]; 30 min pretreatment, 0.0001 wt %, brompheniramine experiment (NaCl 219 ± 20)",104 ± 47
same,Wheal Area × Intensity (X ± S.D.),"[1]; 30 min pretreatment, 0.0001 wt %, chlorpheniramine experiment (NaCl 217 ± 35)",112 ± 58
same,Wheal Area × Intensity (X ± S.D.),"[1]; 30 min pretreatment, 0.0001 wt %, clemastine experiment (NaCl 350 ± 31)",70 ± 27
same,Wheal Area × Intensity (X ± S.D.),"[1]; 30 min pretreatment, 0.0001 wt %, diphenhydramine experiment (NaCl 214 ± 34)",98 ± 22
same,Wheal Area × Intensity (X ± S.D.),"[1]; 30 min pretreatment, 0.0001 wt %, levocabastine/pheniramine experiment (NaCl 252 ± 30)",137 ± 24
same,Wheal Area × Intensity (X ± S.D.),"[1]; 30 min pretreatment, 0.0006 wt %, ketotifen experiment (NaCl 214 ± 41)",16 ± 14
same,Wheal Area × Intensity (X ± S.D.),"[1]; 30 min pretreatment, 0.0006 wt %, pyrilamine experiment (NaCl 194 ± 41)",6 ± 7
same,Wheal Area × Intensity (X ± S.D.),"[1]; 30 min pretreatment, 0.001 wt %, antazoline experiment (NaCl 287 ± 20)",4 ± 4
same,Wheal Area × Intensity (X ± S.D.),"[1]; 30 min pretreatment, 0.001 wt %, brompheniramine experiment (NaCl 219 ± 20)",8 ± 9
same,Wheal Area × Intensity (X ± S.D.),"[1]; 30 min pretreatment, 0.001 wt %, chlorpheniramine experiment (NaCl 217 ± 35)",18 ± 23
same,Wheal Area × Intensity (X ± S.D.),"[1]; 30 min pretreatment, 0.001 wt %, clemastine experiment (NaCl 350 ± 31)",6 ± 7
same,Wheal Area × Intensity (X ± S.D.),"[1]; 30 min pretreatment, 0.001 wt %, diphenhydramine experiment (NaCl 214 ± 34)",12 ± 19
same,Wheal Area × Intensity (X ± S.D.),"[1]; 30 min pretreatment, 0.001 wt %, levocabastine/pheniramine experiment (NaCl 252 ± 30)",7 ± 9
same,Potency,"[1]; 30 min pretreatment, relative to emedastine difumarate = 1.0, (95% Confidence limits)",1.0
same,potency compared to ketotifen,[1]; 30 minute treatment interval,equipotent
same,times more potent than brompheniramine,[1]; 30 minute treatment interval,7 times
same,times more potent than chlorpheniramine,[1]; 30 minute treatment interval,7 times
same,times more potent than clemastine,[1]; 30 minute treatment interval,10 times
same,times more potent than diphenhydramine,[1]; 30 minute treatment interval,3333 times
same,times more potent than levocabastine,[1]; 30 minute treatment interval,100 times
same,times more potent than pyrilamine,[1]; 30 minute treatment interval,10 times
same,times more potent than pheniramine,"[1]; 30 minute treatment interval, approximate, lack of parallelism",approximately 357 times
same,ED50 (text),[1]; 30 minutes prior to histamine challenge,0.000035%
same,ED50 (text),[1]; 2 hours prior to histamine challenge,0.0029%
same,ED50 (text),[1]; 4 hours prior to histamine challenge,0.019%
same,ED50 (text),[1]; 8 hours prior to histamine challenge,0.19%
same,ED50,[1]; pretreatment 1 min,0.0002 wt %
same,Percent Change,"[1]; pretreatment 1 min, 0.0001 wt %",-44%
same,Percent Change,"[1]; pretreatment 1 min, 0.001 wt %",-62%
same,Percent Change,"[1]; pretreatment 1 min, 0.01 wt %",-81%
same,ED50,[1]; pretreatment 30 min,0.000035 wt %
same,Percent Change,"[1]; pretreatment 30 min, 0.000006 wt %",-28%
same,Percent Change,"[1]; pretreatment 30 min, 0.00006 wt %",-58%
same,Percent Change,"[1]; pretreatment 30 min, 0.0006 wt %",-93%
same,ED50,[1]; pretreatment 2 hr,0.0029 wt %
same,Percent Change,"[1]; pretreatment 2 hr, 0.001 wt %",-35%
same,Percent Change,"[1]; pretreatment 2 hr, 0.005 wt %",-53%
same,Percent Change,"[1]; pretreatment 2 hr, 0.01 wt %",-72%
same,ED50,[1]; pretreatment 4 hr,0.019 wt %
same,Percent Change,"[1]; pretreatment 4 hr, 0.001 wt % (first line)",-9%
same,Percent Change,"[1]; pretreatment 4 hr, 0.1 wt %",-84%
same,Percent Change,"[1]; pretreatment 4 hr, 1.0 wt %",-95%
same,ED50,[1]; pretreatment 8 hr,0.19 wt %
same,Percent Change,"[1]; pretreatment 8 hr, 0.01 wt %",-5%
same,Percent Change,"[1]; pretreatment 8 hr, 0.05 wt %",-33%
same,Percent Change,"[1]; pretreatment 8 hr, 0.1 wt %",-43%
same,Percent Change,"[1]; pretreatment 8 hr, 0.5 wt %",-66%
same,Percent Change,"[1]; pretreatment 8 hr, 1.0 wt %",-71%
same,onset and duration of action,[1]; topical ocular administration,rapid onset and an acceptable duration of action
same,times more potent than antazoline,"[1]; topical, 0.5 h",~5813 times
same,potency compared to pyrilamine,[1]; [3],approximately equipotent
same,times more potent than antazoline,[1]; [3],17 times
same,times more potent than ketotifen,[1]; [3],3 times
same,times more potent than pheniramine,[1]; [3],8 times
same,reduction in severity of the hypersensitivity response,[2]; 5 minutes before topical ocular antigen challenge,concentration-dependent reductions in the severity of the hypersensitivity response
same,attenuation of the hypersensitivity response,[2]; concentrations ranging from 0.0001% to 0.1%,Significant attenuation
same,% Change,"[2]; topical ocular antigen challenge, 0.0001 wt %, 5 min before challenge",-29%
same,% Change,"[2]; topical ocular antigen challenge, 0.001 wt %, 5 min before challenge",-45%
same,% Change,"[2]; topical ocular antigen challenge, 0.01 wt %, 5 min before challenge",-51%
same,% Change,"[2]; topical ocular antigen challenge, 0.1 wt %, 5 min before challenge",-67%
same,ED50,[2]; [4],0.0046 wt %
same,ED50 (text),[2]; [4],0.0046%
